Reference: patent publication US10738028B2, “Spiro three-membered ring, spiro five-membered ring peptide deformylase inhibitor and use thereof in antibacteria and anti-tumor” (priority 2016, dated 2020)

Legend:
Assay type in all cases: cell-based
[1] = tested on: Streptococcus pneoumoniae (SPN); assay: MIC, two-fold agar dilution (CLSI), clinical isolates
Text: (§1) 1. The invention adopts the two-fold agar dilution method recommended by the operating procedure of antimicrobial susceptibility testing set by American Clinical and Laboratory Standards Institute (CLSI) to determine the Minimum Inhibitory Concentration (MIC) of the test samples against the tested strains.

[2] = tested on: Enterococcus faecium (EFM); assay: as above
Text: as §1

[3] = tested on: methicillin-sensitive Staphylococcus aureus (MSSA); assay: as above
Text: as §1

[4] = tested on: Moraxella catarrhalis (BCA); assay: as above
Text: as §1

[5] = tested on: methicillin-resistant Staphylococcus epidermidis (MRSE); assay: as above
Text: as §1

[6] = tested on: methicillin-resistant Staphylococcus aureus (MRSA); assay: as above
Text: as §1

[7] = tested on: Enterococcus faecalis (EFA); assay: as above
Text: as §1

[8] = tested on: methicillin-sensitive Staphylococcus epidermidis (MSSE); assay: as above
Text: as §1

[9] = tested on: Escherichia coli (including ESBLs, non-ESBLs); assay: as above
Text: as §1

[10] = tested on: HCT-116 colorectal cancer cell line; assay: CCK-8 proliferation inhibition; conditions: Homo sapiens, HCT-116, 72 h, concentration of 30 μM; 72 hours; CCK-8; read-out: HCT116 inhibition rate/%
Method: (1) HCT-116 colorectal cancer cell line, A549 lung cancer cell line, MGC-803 gastric cancer cell line, BEL-7402 liver cancer cell line, Jurkat T cell leukemia cell line, HL60 acute myeloid leukemia cell line, Hela cervical cancer cell line, MCF-7 breast cancer cell line, PC3 prostate cancer cell line and SAOS-2 osteosarcoma cell line were made into single cell suspension, 180 μL of which was inoculated into 96-well culture plate, which was cultured overnight in CO2 incubator (37° C., 5% CO2, 95% air).
(2) Each of the spiro three-membered ring, spiro five membered ring peptide deformylase inhibitors was dissolved in DMSO, and was further formulated into drug solution with required different final concentration using corresponding cell culture medium. The drug solutions were added to the above cells respectively (20 μL/well), with the control group added with 1‰ DMSO, and cultured in a CO2 incubator for 72 hours.
(3) After incubation for 72 hours, the culture solution was decanted, and 100 μL of 1:10 diluted CCK-8 solution was added.
Wherein, in step (1), the concentration of the single cell suspension was 2000 cells/well.
Wherein, in step (2), HCT-116 cells were cultured in McCoy's 5A medium (containing 10% newborn bovine serum, 1% double antibody); A549 and PC3 cells were cultured in F12 medium (containing 10% newborn bovine serum, 1% double antibody); MGC-803, BEL-7402, SAOS-2, Jurkat and HL60 cells were cultured in 1640 medium (containing 10% newborn bovine serum, 1% double antibody); and MCF-7 and Hela cells were cultured in DMEM high glucose medium (containing 10% newborn bovine serum, 1% double antibody).

CCCC[C@H](CN(O)C=O)C(=O)N1CC2(CC2)C[C@H]1C(=O)NC1CC1 [Example 18]
> 32 µg/mL: MIC (anti-bacterial activity) ([9]; strain ECO− 15-1) | MIC (anti-bacterial activity) ([9]; strain ECO− 15-2)
5%: inhibition at 30 µM [10]
2 µg/mL: MIC (anti-bacterial activity) ([2]; strain EFM 15-3) | MIC (anti-bacterial activity) ([3]; strain MSSA 15-3) | MIC (anti-bacterial activity) ([3]; strain MSSA 15-4) | MIC (anti-bacterial activity) ([3]; strain MSSA 15-5) | MIC (anti-bacterial activity) ([3]; strain MSSA 15-6) | MIC (anti-bacterial activity) ([5]; strain MRSE 15-1) | MIC (anti-bacterial activity) ([5]; strain MRSE 15-2) | MIC (anti-bacterial activity) ([5]; strain MRSE 15-3) | MIC (anti-bacterial activity) ([5]; strain MRSE 15-7) | MIC (anti-bacterial activity) ([6]; strain MRSA 15-1) | MIC (anti-bacterial activity) ([6]; strain MRSA 15-2) | MIC (anti-bacterial activity) ([6]; strain MRSA 15-3) | MIC (anti-bacterial activity) ([6]; strain MRSA 15-4) | MIC (anti-bacterial activity) ([8]; strain MSSE 15-3) | MIC (anti-bacterial activity) ([8]; strain MSSE 15-4) | MIC (anti-bacterial activity) ([8]; strain MSSE 15-5) | MIC (anti-bacterial activity) ([8]; strain MSSE 15-6)
32 µg/mL: MIC (anti-bacterial activity) ([7]; strain EFA 15-1) | MIC (anti-bacterial activity) ([7]; strain EFA 15-2) | MIC (anti-bacterial activity) ([7]; strain EFA 15-4) | MIC (anti-bacterial activity) ([7]; strain EFA 15-5) | MIC (anti-bacterial activity) ([7]; strain EFA 15-6) | MIC (anti-bacterial activity) ([7]; strain EFA 15-9) | MIC (anti-bacterial activity) ([9]; strain ECO+ 15-1) | MIC (anti-bacterial activity) ([9]; strain ECO+ 15-2) | MIC (anti-bacterial activity) ([9]; strain ECO+ 15-3) | MIC (anti-bacterial activity) ([9]; strain ECO+ 15-4) | MIC (anti-bacterial activity) ([9]; strain ECO− 15-3) | MIC (anti-bacterial activity) ([9]; strain ECO− 15-4)
8 µg/mL: MIC (anti-bacterial activity) ([2]; strain EFM 15-1) | MIC (anti-bacterial activity) ([2]; strain EFM 15-2) | MIC (anti-bacterial activity) ([2]; strain EFM 15-4) | MIC (anti-bacterial activity) ([2]; strain EFM 15-6) | MIC (anti-bacterial activity) ([4]; strain BCA 14-4) | MIC (anti-bacterial activity) ([7]; strain EFA 15-3)
16 µg/mL: MIC (anti-bacterial activity) ([1]; strain SPN 16-2) | MIC (anti-bacterial activity) ([4]; strain BCA 14-1) | MIC (anti-bacterial activity) ([4]; strain BCA 14-6)
4 µg/mL: MIC (anti-bacterial activity) ([1]; strain SPN 16-4) | MIC (anti-bacterial activity) ([2]; strain EFM 15-5) | MIC (anti-bacterial activity) ([4]; strain BCA 14-5) | MIC (anti-bacterial activity) ([4]; strain BCA 14-7) | MIC (anti-bacterial activity) ([4]; strain BCA 14-8) | MIC (anti-bacterial activity) ([4]; strain BCA 14-10)

CCCC[C@H](CN(O)C=O)C(=O)N1CC2(CC2)C[C@H]1C(=O)Nc1nc(C)cs1 [Example 19]
6%: inhibition at 30 µM [10]
0.03 µg/mL: MIC (anti-bacterial activity) ([3]; strain MSSA 15-5) | MIC (anti-bacterial activity) ([6]; strain MRSA 15-3) | MIC (anti-bacterial activity) ([8]; strain MSSE 15-5)
2 µg/mL: MIC (anti-bacterial activity) ([2]; strain EFM 15-4) | MIC (anti-bacterial activity) ([2]; strain EFM 15-6)
> 32 µg/mL: MIC (anti-bacterial activity) ([9]; strain ECO+ 15-2) | MIC (anti-bacterial activity) ([9]; strain ECO+ 15-3) | MIC (anti-bacterial activity) ([9]; strain ECO+ 15-4) | MIC (anti-bacterial activity) ([9]; strain ECO− 15-1) | MIC (anti-bacterial activity) ([9]; strain ECO− 15-2) | MIC (anti-bacterial activity) ([9]; strain ECO− 15-3) | MIC (anti-bacterial activity) ([9]; strain ECO− 15-4)
0.25 µg/mL: MIC (anti-bacterial activity) ([1]; strain SPN 16-4) | MIC (anti-bacterial activity) ([2]; strain EFM 15-3) | MIC (anti-bacterial activity) ([2]; strain EFM 15-5) | MIC (anti-bacterial activity) ([3]; strain MSSA 15-6) | MIC (anti-bacterial activity) ([4]; strain BCA 14-7) | MIC (anti-bacterial activity) ([4]; strain BCA 14-8) | MIC (anti-bacterial activity) ([6]; strain MRSA 15-4)
32 µg/mL: MIC (anti-bacterial activity) ([9]; strain ECO+ 15-1)
4 µg/mL: MIC (anti-bacterial activity) ([1]; strain SPN 16-2) | MIC (anti-bacterial activity) ([2]; strain EFM 15-2)
0.015 µg/mL: MIC (anti-bacterial activity) ([8]; strain MSSE 15-6)
8 µg/mL: MIC (anti-bacterial activity) ([2]; strain EFM 15-1) | MIC (anti-bacterial activity) ([7]; strain EFA 15-1) | MIC (anti-bacterial activity) ([7]; strain EFA 15-2) | MIC (anti-bacterial activity) ([7]; strain EFA 15-3) | MIC (anti-bacterial activity) ([7]; strain EFA 15-4) | MIC (anti-bacterial activity) ([7]; strain EFA 15-5) | MIC (anti-bacterial activity) ([7]; strain EFA 15-6) | MIC (anti-bacterial activity) ([7]; strain EFA 15-9)
1 µg/mL: MIC (anti-bacterial activity) ([4]; strain BCA 14-1) | MIC (anti-bacterial activity) ([4]; strain BCA 14-4)
0.06 µg/mL: MIC (anti-bacterial activity) ([5]; strain MRSE 15-1)
0.5 µg/mL: MIC (anti-bacterial activity) ([4]; strain BCA 14-6)
0.125 µg/mL: MIC (anti-bacterial activity) ([3]; strain MSSA 15-3) | MIC (anti-bacterial activity) ([3]; strain MSSA 15-4) | MIC (anti-bacterial activity) ([4]; strain BCA 14-5) | MIC (anti-bacterial activity) ([4]; strain BCA 14-10) | MIC (anti-bacterial activity) ([5]; strain MRSE 15-2) | MIC (anti-bacterial activity) ([5]; strain MRSE 15-3) | MIC (anti-bacterial activity) ([5]; strain MRSE 15-7) | MIC (anti-bacterial activity) ([6]; strain MRSA 15-1) | MIC (anti-bacterial activity) ([6]; strain MRSA 15-2) | MIC (anti-bacterial activity) ([8]; strain MSSE 15-3) | MIC (anti-bacterial activity) ([8]; strain MSSE 15-4)
